Tests used:
GPR6 = molecular target: T1, GPR6 (Homo sapiens, UniProt P46095); test: GPR6 antagonist functional cAMP assay (LANCE Ultra cAMP TR-FRET, CHO cells stably expressing GPR6); format: cell-based
T1 construct: expressed in transfected cells; host or cells: CHO cells
Procedure, shortened: (§1)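 10,000 cells/well; KRB buffer + 0.1% BSA + 150 μM Ro 20-1724; cpd 45 min, 37 °C, 0.1% DMSO; TR-FRET cAMP, 665 nm; 4-PL fit, normalized to DMSO (0.1%) and reference (100%) → IC50.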

GPR3 = molecular target: T2, GPR3 (Homo sapiens, UniProt P46089); test: GPR3 antagonist functional cAMP assay (LANCE Ultra cAMP TR-FRET, CHO cells stably expressing GPR3); format: cell-based
T2 construct: expressed in transfected cells; host or cells: CHO cells
Procedure, shortened: as §1

[1] = CHO cells stably expressing GPR6, cAMP assay (Example 24)
[2] = CHO cells stably expressing GPR3, cAMP assay (Example 24)

T2 sequence (P46089 whole entry, species assumed): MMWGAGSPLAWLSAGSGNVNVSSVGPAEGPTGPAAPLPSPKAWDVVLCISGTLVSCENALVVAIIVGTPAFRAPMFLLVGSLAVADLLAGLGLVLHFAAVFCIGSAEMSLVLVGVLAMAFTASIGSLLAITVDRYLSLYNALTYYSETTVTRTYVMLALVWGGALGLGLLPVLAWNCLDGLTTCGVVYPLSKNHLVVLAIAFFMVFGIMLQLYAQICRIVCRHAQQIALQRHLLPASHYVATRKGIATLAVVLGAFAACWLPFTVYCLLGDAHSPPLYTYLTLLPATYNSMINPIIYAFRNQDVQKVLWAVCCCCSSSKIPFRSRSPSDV
T1 sequence (P46095 whole entry): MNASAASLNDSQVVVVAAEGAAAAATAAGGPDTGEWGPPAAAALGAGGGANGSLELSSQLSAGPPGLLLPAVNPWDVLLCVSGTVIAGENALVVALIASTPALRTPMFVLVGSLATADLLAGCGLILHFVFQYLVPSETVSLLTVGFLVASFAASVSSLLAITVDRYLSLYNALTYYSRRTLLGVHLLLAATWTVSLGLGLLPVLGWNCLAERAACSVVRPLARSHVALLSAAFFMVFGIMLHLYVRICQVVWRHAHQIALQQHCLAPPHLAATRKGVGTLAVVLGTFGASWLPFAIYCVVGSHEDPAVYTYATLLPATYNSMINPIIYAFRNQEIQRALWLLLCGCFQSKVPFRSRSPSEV

| SMILES | IC50 (GPR6; procedure of Example 24) [nM] | IC50 (GPR3; procedure of Example 24) [nM] | IC50 (GPR6; [1]) [nM] | IC50 (GPR3; [2]) [nM] |
| --- | --- | --- | --- | --- |
| CC(=O)N1CCc2nc(N3CCC(Oc4ccc(F)cc4F)CC3)c(C3CCC(O)CC3)nc2C1 (centres unmarked) [Compound 374, 1-(2-(4-(2,4-difluorophenoxy)piperidin-1-yl)-3-(4-hydroxycyclohexyl)-7,8-dihydropyrido[3,4-b]pyrazin-6(5H)-yl)ethan-1-one] | 1000 to 30000 | 1000 to 30000 |  |  |
| CC(=O)N1CCc2nc(N3CCC(Cc4ccc(F)cc4F)CC3)c(-c3cnn(C)c3)nc2C1 [Compound 375, 1-(2-{4-[(2,4-difluorophenyl)methyl]piperidin-1-yl}-3-(1-methyl-1H-pyrazol-4-yl)-5H,6H,7H,8H-pyrido[3,4-b]pyrazin-6-yl)ethan-1-one] | < 100 | 100 to 1000 |  |  |
| Cn1cc(-c2nc3c(O)nccc3nc2N2CCC(Oc3ccc(F)cc3F)CC2)cn1 [Compound 376, 2-[4-(2,4-difluorophenoxy)piperidin-1-yl]-3-(1-methyl-1H-pyrazol-4-yl)pyrido[3,4-b]pyrazin-5-ol] | 1000 to 30000 | 1000 to 30000 |  |  |
| CC(=O)N1CCc2nc(N3CCC(Oc4cccc(F)c4)C3)c(-c3cnn(C)c3)nc2C1 (centres unmarked) [Compound 383, 1-{2-[3-(3-fluorophenoxy)pyrrolidin-1-yl]-3-(1-methyl-1H-pyrazol-4-yl)-5H,6H,7H,8H-pyrido[3,4-b]pyrazin-6-yl}ethan-1-one] |  |  | 1000 to 30000 | 1000 to 30000 |
| CC(=O)N1CCc2nc(N3CCN(Cc4ccc(C(F)(F)F)cc4)CC3)c(-c3cnn(C)c3)nc2C1 [Compound 384, 1-[3-(1-methyl-1H-pyrazol-4-yl)-2-(4-{[4-(trifluoromethyl)phenyl]methyl}piperazin-1-yl)-5H,6H,7H,8H-pyrido[3,4-b]pyrazin-6-yl]ethan-1-one] |  |  | 1000 to 30000 | 1000 to 30000 |
| CC(=O)N1CCc2nc(N3CCC(C(=O)N(C)c4ccc(F)cc4)C3)c(-c3cnn(C)c3)nc2C1 (centres unmarked) [Compound 385, 1-[6-acetyl-3-(1-methyl-1H-pyrazol-4-yl)-5H,6H,7H,8H-pyrido[3,4-b]pyrazin-2-yl]-N-(4-fluorophenyl)-N-methylpyrrolidine-3-carboxamide] |  |  | ≥ 30000 | 1000 to 30000 |
| CC(=O)N1CCc2nc(N3CCC(C(=O)NCc4ccc(F)cc4F)C3)c(-c3cnn(C)c3)nc2C1 (centres unmarked) [Compound 386, 1-[6-acetyl-3-(1-methyl-1H-pyrazol-4-yl)-5H,6H,7H,8H-pyrido[3,4-b]pyrazin-2-yl]-N-[(2,4-difluorophenyl)methyl] pyrrolidine-3-carboxamide] |  |  | ≥ 30000 | 1000 to 30000 |
| CC(=O)N1CCc2nc(N3CCC(C(=O)N(C)Cc4ccc(F)cc4F)C3)c(-c3cnn(C)c3)nc2C1 (centres unmarked) [Compound 387, 1-[6-acetyl-3-(1-methyl-1H-pyrazol-4-yl)-5H,6H,7H,8H-pyrido[3,4-b]pyrazin-2-yl]-N-[(2,4-difluorophenyl)methyl]-N-methylpyrrolidine-3-carboxamide] |  |  | 1000 to 30000 | 1000 to 30000 |
| CC(=O)N1CCc2nc(N3CCC(C(=O)N(C)C)C3)c(-c3cnn(C)c3)nc2C1 (centres unmarked) [Compound 388, 1-[6-acetyl-3-(1-methyl-1H-pyrazol-4-yl)-5H,6H,7H,8H-pyrido[3,4-b]pyrazin-2-yl]-N,N-dimethylpyrrolidine-3-carboxamide] |  |  | ≥ 30000 | 100 to 1000 |
| CC(=O)N1CCc2nc(N3CCC(C(=O)N4CCOCC4)C3)c(-c3cnn(C)c3)nc2C1 (centres unmarked) [Compound 389, 1-[3-(1-methyl-1H-pyrazol-4-yl)-2-[3-(morpholine-4-carbonyl)pyrrolidin-1-yl]-5H,6H,7H,8H-pyrido[3,4-b]pyrazin-6-yl]ethan-1-one] |  |  | ≥ 30000 | 1000 to 30000 |
| CC(=O)N1CCc2nc(N3CCC(C(=O)N4CCN(C)C(=O)C4)C3)c(-c3cnn(C)c3)nc2C1 (centres unmarked) [Compound 390, 4-{1-[6-acetyl-3-(1-methyl-1H-pyrazol-4-yl)-5H,6H,7H,8H-pyrido[3,4-b]pyrazin-2-yl]pyrrolidine-3-carbonyl}-1-methylpiperazin-2-one] |  |  | 1000 to 30000 | 1000 to 30000 |
| CC(=O)N1CCc2nc(N3CCC(C(=O)Nc4ccc(F)cc4)C3)c(-c3cnn(C)c3)nc2C1 (centres unmarked) [Compound 391, 1-[6-acetyl-3-(1-methyl-1H-pyrazol-4-yl)-5H,6H,7H,8H-pyrido[3,4-b]pyrazin-2-yl]-N-(4-fluorophenyl)pyrrolidine-3-carboxamide] |  |  | ≥ 30000 | 1000 to 30000 |
| CC(=O)N1CCc2nc(N3CCC(C(=O)N(C)c4ccc(F)cc4F)C3)c(-c3cnn(C)c3)nc2C1 (centres unmarked) [Compound 392, 1-[6-acetyl-3-(1-methyl-1H-pyrazol-4-yl)-5H,6H,7H,8H-pyrido[3,4-b]pyrazin-2-yl]-N-(2,4-difluorophenyl)-N-methylpyrrolidine-3-carboxamide] |  |  | ≥ 30000 | 1000 to 30000 |
| CC(=O)N1CCc2nc(N3CCC(Oc4cccc(F)c4)CC3)c(-c3cnn(C)c3)nc2C1 [Compound 393, 1-{2-[4-(3-fluorophenoxy)piperidin-1-yl]-3-(1-methyl-1H-pyrazol-4-yl)-5H,6H,7H,8H-pyrido[3,4-b]pyrazin-6-yl}ethan-1-one] |  |  | 1000 to 30000 | 1000 to 30000 |
| Cn1cc(-c2nc3cnc(O)cc3nc2N2CCC(Oc3ccc(F)cc3F)CC2)cn1 [Compound 395, 2-(4-(2,4-difluorophenoxy)piperidin-1-yl)-3-(1-methyl-1H-pyrazol-4-yl)pyrido[3,4-b]pyrazin-7-ol] |  |  | 1000 to 30000 | 1000 to 30000 |
| CC(=O)N1CCc2nc(N3CC(Oc4ccc(F)cc4F)C3)c(-c3cnn(C)c3)nc2C1 [Compound 398, 1-{2-[3-(2,4-difluorophenoxy)azetidin-1-yl]-3-(1-methyl-1H-pyrazol-4-yl)-5H,6H,7H,8H-pyrido[3,4-b]pyrazin-6-yl}ethan-1-one] |  |  | 1000 to 30000 | 1000 to 30000 |
| Cn1cc(-c2nc3cnc(OCCO)cc3nc2N2CCC(Oc3ccc(F)cc3F)CC2)cn1 [Compound 399, 2-({2-[4-(2,4-difluorophenoxy)piperidin-1-yl]-3-(1-methyl-1H-pyrazol-4-yl)pyrido[3,4-b]pyrazin-7-yl}oxy)ethan-1-ol] |  |  | 1000 to 30000 | 1000 to 30000 |
| Cn1cc(-c2nc3cnc(C(O)CC#N)cc3nc2N2CCC(Oc3ccc(F)cc3F)CC2)cn1 (centres unmarked) [Compound 402, 3-(2-(4-(2,4-difluorophenoxy)piperidin-1-yl)-3-(1-methyl-1H-pyrazol-4-yl)pyrido[3,4-b]pyrazin-7-yl)-3-hydroxypropanenitrile] |  |  | 1000 to 30000 | 1000 to 30000 |
| CC(=O)N1CCc2nc(N3CCC(Oc4ccc(F)cc4F)CC3)c(C3CCC(=O)CC3)nc2C1 [Compound 404, 4-(6-acetyl-2-(4-(2,4-difluorophenoxy)piperidin-1-yl)-5,6,7,8-tetrahydropyrido[3,4-b]pyrazin-3-yl)cyclohexan-1-one] |  |  | 1000 to 30000 | 1000 to 30000 |

More lines, now with the values ahead:

| IC50 (GPR6; procedure of Example 24) [nM] | IC50 (GPR3; procedure of Example 24) [nM] | IC50 (GPR6; [1]) [nM] | IC50 (GPR3; [2]) [nM] | SMILES |
| --- | --- | --- | --- | --- |
|  |  | 100 to 1000 | 1000 to 30000 | Cn1cc(-c2nc3cnc(CC(O)CO)cc3nc2N2CCC(Oc3ccc(F)cc3F)CC2)cn1 (centres unmarked) [Compound 377, 3-(2-(4-(2,4-difluorophenoxy)piperidin-1-yl)-3-(1-methyl-1H-pyrazol-4-yl)pyrido[3,4-b]pyrazin-7-yl)propane-1,2-diol] |
|  |  | 100 to 1000 | 1000 to 30000 | COCCNc1cc2nc(N3CCC(Oc4ccc(F)cc4F)CC3)c(-c3cnn(C)c3)nc2cn1 [Compound 380, 2-[4-(2,4-difluorophenoxy)piperidin-1-yl]-N-(2-methoxyethyl)-3-(1-methyl-1H-pyrazol-4-yl)pyrido[3,4-b]pyrazin-7-amine] |
|  |  | 100 to 1000 | 1000 to 30000 | COCCOc1cc2nc(N3CCC(Oc4ccc(F)cc4F)CC3)c(-c3cnn(C)c3)nc2cn1 [Compound 381, 4-(2,4-difluorophenoxy)-1-[7-(2-methoxyethoxy)-3-(1-methyl-1H-pyrazol-4-yl)pyrido[3,4-b]pyrazin-2-yl]piperidine] |
|  |  | 100 to 1000 | 1000 to 30000 | Cn1cc(-c2nc3cnc(OC4COC4)cc3nc2N2CCC(Oc3ccc(F)cc3F)CC2)cn1 [Compound 382, 4-(2,4-difluorophenoxy)-1-[3-(1-methyl-1H-pyrazol-4-yl)-7-(oxetan-3-yloxy)pyrido[3,4-b]pyrazin-2-yl]piperidine] |
|  |  | 100 to 1000 | 1000 to 30000 | CC(=O)N1Cc2nc(-c3cnn(C)c3)c(N3CCC(Oc4ccc(F)cc4F)CC3)nc2CC1C (centres unmarked) [Compound 394, 1-{2-[4-(2,4-difluorophenoxy)piperidin-1-yl]-7-methyl-3-(1-methyl-1H-pyrazol-4-yl)-5H,6H,7H,8H-pyrido[3,4-b]pyrazin-6-yl}ethan-1-one] |
|  |  | 100 to 1000 | 1000 to 30000 | CCn1cc(-c2nc3c(nc2N2CCC(Oc4cc(Cl)ccc4Cl)CC2)CCN(C(C)=O)C3)cn1 [Compound 400, 1-{2-[4-(2,5-dichlorophenoxy)piperidin-1-yl]-3-(1-ethyl-1H-pyrazol-4-yl)-5H,6H,7H,8H-pyrido[3,4-b]pyrazin-6-yl}ethan-1-one] |
|  |  | 100 to 1000 | 1000 to 30000 | CC(O)C(O)c1cc2nc(N3CCC(Oc4ccc(F)cc4F)CC3)c(-c3cnn(C)c3)nc2cn1 (centres unmarked) [Compound 401, 1-{2-[4-(2,4-difluorophenoxy)piperidin-1-yl]-3-(1-methyl-1H-pyrazol-4-yl)pyrido[3,4-b]pyrazin-7-yl}propane-1,2-diol] |
|  |  | 100 to 1000 | 1000 to 30000 | CCn1cc(-c2nc3c(nc2N2CCC(Oc4cc(Cl)ccc4Cl)CC2)CCN(C(=O)CO)C3)cn1 [Compound 403, 1-{2-[4-(2,5-dichlorophenoxy)piperidin-1-yl]-3-(1-ethyl-1H-pyrazol-4-yl)-5H,6H,7H,8H-pyrido[3,4-b]pyrazin-6-yl}-2-hydroxyethan-1-one] |
|  |  | 100 to 1000 | 1000 to 30000 | [2H]C([2H])([2H])n1cc(-c2nc3c(nc2N2CCC(Oc4ccc(F)cc4F)CC2)CCN(C(C)=O)C3)cn1 [Compound 405, 1-{2-[4-(2,4-difluorophenoxy)piperidin-1-yl]-3-[1-(2H3)methyl-1H-pyrazol-4-yl]-5H,6H,7H,8H-pyrido[3,4-b]pyrazin-6-yl}ethan-1-one] |

— patent US20260042755A1, “GPR6 INVERSE AGONISTS” (MapLight Therapeutics, Inc., priority 2022, published 2026)
